This note sets out measurements from US10745383B2, “1,3,5-triazine derivative and method of using same” (CHIA TAI TIANQING PHARMACEUTICAL GROUP CO., LTD., priority 2015, dated 2020).

Data set [1] addresses IDH2 (R172K, 40-end) (Homo sapiens (Human), UniProt P48735, R172K). The experiment in a line: IDH2 inhibitory activity determined by decrease of NADPH (diaphorase/resazurin fluorescence). The class given is biochemical. To be noted: 120 min pre-incubation with enzyme and NADPH, 120 min reaction with α-KG. On the procedure: The inhibitory activity of the compounds of the present application against IDH2 (R172K, 40-end) was determined by using the following method, which was expressed as IC50 values, i.e., the concentrations of the compounds required to achieve 50% inhibition of IDH2 activity.
The inhibitory activity of a compound against IDH2 (R172K, 40-end) was determined by the decrease of a helper factor NADPH. The test compound was pre-incubated with an enzyme and NADPH, and then a reaction was initiated by the addition of α-KG, and performed for 120 minutes under a linear condition. Then, the reaction was terminated by the addition of diaphorase (lipoamide dehydrogenase) and the corresponding substrate resazurin. Diaphorase terminated the IDH2m reaction by decreasing the available helper factor NADPH, which oxidized NADPH to NADP, and reduced resazurin to highly fluorescent resorufin. The amount of remaining helper factor NADPH after a specific reaction time was quantified via an easily detectable fluorophore.
Specifically, 2.5 μl of a 3-fold gradient diluted test compound was added to a 384-well plate, and then 5 μl of a reaction buffer (20 mM Tris-HCl, PH7.5; 150 mM NaCl; 10 mM MgCl2; 10 mM MnCl2; 0.4 mg/ml BSA and 2 mM DTT) containing 80 nM IDH2 (R172K, 40-end) and 40 μM NADPH was added. Then, the resulting test mixture was incubated for 120 minutes at a temperature of 23° C., and then 2.5 μl of the reaction buffer containing 4 mM α-KG was added to initiate the reaction. After incubating for 120 minutes at room temperature, 5 μl of a termination mixture (0.4 U/ml diaphorase and 40 μM resazurin) prepared with the reaction buffer was added to convert resazurin to resorufin to determine the remaining NADPH. After incubating for 10 minutes at a temperature of 23° C., a fluorescence value was determined through Flexstation 3 at Ex535/Em595.
A general note: The colour change of resazurin is a common sign of viable cells or microbes.

Data set [2] can be described thus: Pharmacokinetic parameters in rats after a single intragastric dose. The class given is in vivo. To be noted: for AUC(0-inf) / Cmax / Tmax / half-life: rat, po, male rats, intragastric, single dose 5 mg/kg, plasma. On the procedure:
Healthy male adult rats (7-9 weeks old) were used in this study. Each group of animals (3 male rats) was intragastrically administered once at a single dose of 5 mg/kg. The animals in the intragastric administration group were fasted overnight before this study. The fasting time period was from 10 hours before administration to 4 hours after administration.
Blood samples were taken at 0.25, 0.5, 1, 2, 4, 6, 8 and 24 h after administration. The animals were anesthetized with isoflurane using an animal anesthesia machine, and then 0.3 mL whole blood samples were taken from the fundus venous plexus. The blood samples were placed in heparin anticoagulant tubes, and centrifuged for 5 min at 4° C. and 4000 rpm. The resulting plasmas were transferred to centrifuge tubes, and stored at −80° C. until analysis.
Verified LC-MS/MS method was used to analyze the plasma samples. Plasma concentration-time data of animals were analyzed using WinNonlin (Professional Edition, version 6.3; Pharsight Company) software. The non-compartmental model was introduced for concentration analysis. The pharmacokinetic parameters of the compounds were calculated.

The mark [3] stands for this setting: rats, same dose (5 mg/kg intragastric).

Chain of IDH2 (R172K, 40-end) (P48735 40-452 R172K): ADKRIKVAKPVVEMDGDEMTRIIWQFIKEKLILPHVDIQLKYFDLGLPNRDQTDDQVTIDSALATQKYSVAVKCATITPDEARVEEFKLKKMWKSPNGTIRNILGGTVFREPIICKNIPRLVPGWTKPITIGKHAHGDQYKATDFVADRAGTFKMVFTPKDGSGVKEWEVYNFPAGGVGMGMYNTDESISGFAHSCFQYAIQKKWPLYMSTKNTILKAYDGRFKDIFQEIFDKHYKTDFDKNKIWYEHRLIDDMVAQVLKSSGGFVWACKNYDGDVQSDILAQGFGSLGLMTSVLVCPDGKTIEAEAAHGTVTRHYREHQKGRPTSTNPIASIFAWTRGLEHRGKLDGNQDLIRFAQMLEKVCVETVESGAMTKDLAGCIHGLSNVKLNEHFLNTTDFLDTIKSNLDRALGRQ

In the case of `CCONc1nc(Nc2ccnc(C(F)(F)F)c2)nc(-c2cccc(C(F)(F)F)n2)n1` [Example 1, 4-(ethoxyamino)-6-(6-(trifluoromethyl)pyridin-2-yl)-N-(2-(trifluoromethyl)pyridin-4-yl)-1,3,5-triazin-2-amine], the 50% inhibitory concentration (IC50) (as a rule, the midpoint of a concentration-inhibition curve) in data set [1] turned out to be 22.4 nM.
Turning to `FC(F)(F)c1cc(Nc2nc(NOCC3CC3)nc(-c3cccc(C(F)(F)F)n3)n2)ccn1` [Example 4, 4-((cyclopropylmethoxy)amino)-6-(6-(trifluoromethyl)pyridin-2-yl)-N-(2-(trifluoromethyl)pyridin-4-yl)-1,3,5-triazin-2-amine], in data set [1], the IC50 came out at 38.2 nM.
`CC(C)(O)CNc1nc(Nc2ccnc(C(F)(F)F)c2)nc(-c2cccc(C(F)(F)F)n2)n1` [AG-221, reference compound]: in data set [2], the area under the curve AUC(0-inf) (in general, total exposure, with the tail of the curve extrapolated) came out at 5380 ng·h/mL; the maximum concentration (Cmax) – broadly, the highest concentration seen after dosing – is 479 ng/mL; the Tmax (as a rule, the time from dosing to the highest level) stood at 4 h; the half-life – broadly, the time in which the quantity being followed falls by half – is 224 min.
With `FC(F)(F)c1cc(Nc2nc(NOCc3ccccc3)nc(-c3cccc(C(F)(F)F)n3)n2)ccn1` [Example 8, 4-((benzyloxy)amino)-6-(6-(trifluoromethyl)pyridin-2-yl)-N-(2-(trifluoromethyl)pyridin-4-yl)-1,3,5-triazin-2-amine], in data set [1], the IC50 is 239 nM.
On the same count and under the same terms, the value for `CC(C)(CO)ONc1nc(Nc2ccnc(C(F)(F)F)c2)nc(-c2cccc(C(F)(F)F)n2)n1` [Example 7, 2-methyl-2-(((4-(6-(trifluoromethyl)pyridin-2-yl)-6-((2-(trifluoromethyl)pyridin-4-yl)amino)-1,3,5-triazin-2-yl)amino)oxy)propan-1-ol] was 154 nM; that for `CC(C)(C)ONc1nc(Nc2ccnc(C(F)(F)F)c2)nc(-c2ccccc2)n1` [Example 10, 4-(tert-butoxyamino)-6-phenyl-N-(2-(trifluoromethyl)pyridin-4-yl)-1,3,5-triazin-2-amine] was 51.4 nM; that for `CC(C)(O)CONc1nc(Nc2ccnc(C(F)(F)F)c2)nc(-c2cccc(C(F)(F)F)n2)n1` [Example 6, 2-methyl-1-(((4-(6-(trifluoromethyl)pyridin-2-yl)-6-((2-(trifluoromethyl)pyridin-4-yl)amino)-1,3,5-triazin-2-yl)amino)oxy)propan-2-ol] was 46.9 nM.
As for `CC(C)(C)ONc1nc(Nc2ccnc(C(F)(F)F)c2)nc(-c2cccc(C(F)(F)F)n2)n1` [Example 3, 4-(tert-butoxyamino)-6-(6-(trifluoromethyl)pyridin-2-yl)-N-(2-(trifluoromethyl)pyridin-4-yl)-1,3,5-triazin-2-amine], half-maximal inhibition in data set [1] (IC50) required 31.7 nM. In data set [2], the AUC(0-inf) was determined as 10800 ng·h/mL, the peak level (Cmax) was 589 ng/mL, the time of peak concentration (Tmax) was 5 h and the half-life was 720 min. In data set [2] (setting [3]), the “half-life compared with AG-221” value is “longer half-life”, the “metabolism in vivo compared with AG-221” value is given as “better metabolism in vivo” and the “plasma concentration compared with AG-221” value is listed as “higher plasma concentration”.
